Test results: ChEMBL document CHEMBL1143858, “Structure-based design and synthesis of novel macrocyclic pyrazolo[1,5-a] [1,3,5]triazine compounds as potent inhibitors of protein kinase CK2 and their anticancer activities” (Bioorg Med Chem Lett, 2008)
pIC50, pKi: −log10 of the molar value.

Tests used:
[1] = target: Casein kinase II subunit alpha (Zea mays, UniProt P28523); assay: Inhibition of corn CK2
HCT-116 = assay: Inhibition of human HCT116 cells by MTT assay; type: functional, cell-based
PC-3 = assay: Inhibition of human PC3 cells by MTT assay; type: functional, cell-based

Sequence of Casein kinase II subunit alpha (P28523 whole entry): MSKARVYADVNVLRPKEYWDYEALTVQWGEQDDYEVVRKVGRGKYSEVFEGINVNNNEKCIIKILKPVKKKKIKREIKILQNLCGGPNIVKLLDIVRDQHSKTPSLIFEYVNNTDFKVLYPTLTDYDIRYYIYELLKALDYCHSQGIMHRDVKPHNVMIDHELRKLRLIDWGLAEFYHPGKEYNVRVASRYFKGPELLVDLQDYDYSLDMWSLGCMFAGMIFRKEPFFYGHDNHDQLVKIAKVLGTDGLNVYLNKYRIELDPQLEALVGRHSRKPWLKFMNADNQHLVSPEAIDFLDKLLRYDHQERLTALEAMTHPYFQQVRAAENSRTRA

`CCN(CC)C1CCN(C(=O)c2cccc(Nc3nc4nc5c(cnn35)CCCCC(=O)Nc3cccc(c3)N4)c2)C1` (stereo unspecified) was tested, and the pKi [1] was 8.66, the pIC50 (HCT-116; Homo sapiens, HCT-116) was 6.89 and the pIC50 (PC-3; Homo sapiens, PC-3) was 6.85.
`CN(C)CCNC(=O)c1cccc(Nc2nc3nc4c(cnn24)CCCCC(=O)Nc2cccc(c2)N3)c1` was tested, and the pKi [1] was 8.28, the pIC50 (HCT-116; Homo sapiens, HCT-116) was 6.62 and the pIC50 (PC-3; Homo sapiens, PC-3) was 6.42.
In the case of `O=C1CCCCc2cnn3c(Nc4cccc(C(=O)N5CCNCC5)c4)nc(nc23)Nc2cccc(c2)N1`, the pKi [1] was 9.10 and the pIC50 (HCT-116; Homo sapiens, HCT-116) was 6.36.
`CC(=O)Nc1cccc(Nc2nc(NC3CC3)n3ncc(C#N)c3n2)c1` showed a pIC50 (PC-3; Homo sapiens, PC-3) of 5.29.
Compound `CN1CCC(N(C)C(=O)c2cccc(Nc3nc4nc5c(cnn35)CCCCC(=O)Nc3cccc(c3)N4)c2)C1` (stereo unspecified) has a pKi [1] of 8.70, a pIC50 (HCT-116; Homo sapiens, HCT-116) of 7.08 and a pIC50 (PC-3; Homo sapiens, PC-3) of 6.92.
For `O=C1CCCCc2cnn3c(Nc4cccc(C(=O)N5CC(O)C5)c4)nc(nc23)Nc2cccc(c2)N1`, the pKi [1] was 8.44, the pIC50 (HCT-116; Homo sapiens, HCT-116) was 6.48 and the pIC50 (PC-3; Homo sapiens, PC-3) was 6.22.
With `CN1CCN(C(=O)c2cccc(Nc3nc4nc5c(cnn35)CCCCC(=O)Nc3cccc(c3)N4)c2)CC1` the pKi [1] was 8.89, the pIC50 (HCT-116; Homo sapiens, HCT-116) was 6.60 and the pIC50 (PC-3; Homo sapiens, PC-3) was 6.30.
In the case of `CN1CC(NC(=O)c2cccc(Nc3nc4nc5c(cnn35)CCCCC(=O)Nc3cccc(c3)N4)c2)C1`, the pKi [1] was 8.13, the pIC50 (HCT-116; Homo sapiens, HCT-116) was 6.57 and the pIC50 (PC-3; Homo sapiens, PC-3) was 6.48.
Compound `CN(C)C1CCN(C(=O)c2cccc(Nc3nc4nc5c(cnn35)CCCCC(=O)Nc3cccc(c3)N4)c2)C1` (stereo unspecified) has a pKi [1] of 8.85, a pIC50 (HCT-116; Homo sapiens, HCT-116) of 6.72 and a pIC50 (PC-3; Homo sapiens, PC-3) of 6.64.
Work on `CN(C)CCN(C)C(=O)c1cccc(Nc2nc3nc4c(cnn24)CCCCC(=O)Nc2cccc(c2)N3)c1` yielded a pKi [1] of 8.40, a pIC50 (HCT-116; Homo sapiens, HCT-116) of 6.89 and a pIC50 (PC-3; Homo sapiens, PC-3) of 6.68.
`CCN(CC)CCN(C)C(=O)c1cccc(Nc2nc3nc4c(cnn24)CCCCC(=O)Nc2cccc(c2)N3)c1` showed a pKi [1] of 8.62 and a pIC50 (HCT-116; Homo sapiens, HCT-116) of 6.82.
`CN1CCC(N(C)C(=O)c2cccc(Nc3nc4nc5c(cnn35)CCCCC(=O)Nc3cccc(c3)N4)c2)CC1` was tested, and the pKi [1] was 8.85 and the pIC50 (HCT-116; Homo sapiens, HCT-116) was 6.74.
For `CCN(CC)C1CN(C(=O)c2cccc(Nc3nc4nc5c(cnn35)CCCCC(=O)Nc3cccc(c3)N4)c2)C1`, the pKi [1] was 8.47, the pIC50 (HCT-116; Homo sapiens, HCT-116) was 6.52 and the pIC50 (PC-3; Homo sapiens, PC-3) was 6.21.
In the case of `O=C1CCCCc2cnn3c(NC4CC4)nc(nc23)Nc2cccc(c2)N1`, the pIC50 (HCT-116; hct-116) was 6.54 and the pIC50 (PC-3; pc-3) was 6.06.
